# Reference: ChEMBL document CHEMBL1126502, “Enhancement of binding of quaternary ammonium derivatives of chlorpromaxine to dopamine D-2 receptors by the addition of a H-bonding group” (Bioorg Med Chem Lett, 1993)
# Molecular target: D(2) dopamine receptor (Rattus norvegicus, UniProt P61169)
# Experiment: Tested for Competitive binding inhibition of [3H]spiperone to Dopamine receptor D2 in rat striatal membrane.
# Assay type: cell membranes
# D(2) dopamine receptor, sequence (P61169 whole entry): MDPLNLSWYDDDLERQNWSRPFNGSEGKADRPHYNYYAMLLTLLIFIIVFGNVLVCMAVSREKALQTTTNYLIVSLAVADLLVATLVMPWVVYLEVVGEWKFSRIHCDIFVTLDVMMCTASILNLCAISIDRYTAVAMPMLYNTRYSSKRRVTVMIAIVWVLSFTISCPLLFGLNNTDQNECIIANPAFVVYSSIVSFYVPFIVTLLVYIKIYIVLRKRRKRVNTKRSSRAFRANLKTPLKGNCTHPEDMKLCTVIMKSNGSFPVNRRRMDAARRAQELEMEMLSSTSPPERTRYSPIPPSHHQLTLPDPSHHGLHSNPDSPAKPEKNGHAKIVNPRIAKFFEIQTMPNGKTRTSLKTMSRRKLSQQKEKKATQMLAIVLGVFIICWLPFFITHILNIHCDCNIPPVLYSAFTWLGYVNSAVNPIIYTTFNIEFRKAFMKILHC
row,Ki,SMILES
1,8.57 µM,C[N+](C)(C)CCCN1c2ccccc2Sc2ccc(Cl)cc21
2,4.88 µM,C[N+](C)(C)NCCN1c2ccccc2Sc2ccc(Cl)cc21
3,0.82 µM,C[N+](C)(N)CCCN1c2ccccc2Sc2ccc(Cl)cc21
